Entries after “also recorded” stand apart in the source; their conditions may differ. Blank lines part the entries; values can stand above or below the compound they belong to.
What was measured:
β-catenin/BCL9 PPI = target: T1, β-catenin/BCL9 PPI (Homo sapiens, UniProt P35222); experiment: AlphaScreen competitive inhibition assay of the β-catenin/BCL9 PPI; format: binding; conditions: for fold less potent than ZW4864 (β-catenin/BCL9 Ki): compared with ZW4864
T1 sequence (P35222 1-781): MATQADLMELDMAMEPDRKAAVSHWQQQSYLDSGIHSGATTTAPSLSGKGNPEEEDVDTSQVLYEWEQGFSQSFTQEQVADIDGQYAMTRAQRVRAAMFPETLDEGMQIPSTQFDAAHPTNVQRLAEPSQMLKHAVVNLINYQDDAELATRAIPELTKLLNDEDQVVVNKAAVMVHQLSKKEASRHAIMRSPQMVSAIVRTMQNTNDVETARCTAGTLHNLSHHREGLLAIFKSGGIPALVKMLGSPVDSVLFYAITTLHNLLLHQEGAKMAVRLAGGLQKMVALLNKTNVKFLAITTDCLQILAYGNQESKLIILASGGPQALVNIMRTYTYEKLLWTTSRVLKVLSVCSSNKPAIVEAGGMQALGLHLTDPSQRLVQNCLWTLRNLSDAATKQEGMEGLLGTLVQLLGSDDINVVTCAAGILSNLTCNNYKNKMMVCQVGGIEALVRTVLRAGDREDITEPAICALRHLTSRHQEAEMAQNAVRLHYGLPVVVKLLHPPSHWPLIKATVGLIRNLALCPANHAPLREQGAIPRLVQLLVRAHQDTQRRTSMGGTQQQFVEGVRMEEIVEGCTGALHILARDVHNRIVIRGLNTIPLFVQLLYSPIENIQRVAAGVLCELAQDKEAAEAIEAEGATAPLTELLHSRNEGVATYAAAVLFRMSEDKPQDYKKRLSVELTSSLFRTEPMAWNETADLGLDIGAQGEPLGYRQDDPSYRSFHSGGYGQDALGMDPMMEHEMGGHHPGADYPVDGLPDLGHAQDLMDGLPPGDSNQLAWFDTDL

[1] = tested on: β-catenin-expressing HEK293 cells; experiment: TOPFlash luciferase reporter assay, HEK293; format: cell-based; conditions: 200 μM, 24 h
BCL9 HD2 (Homo sapiens) = BCL9 HD2 (Homo sapiens) (UniProt O00512); conditions: cited from earlier work
[2] = tested on: Axin2 and cyclin D1 in SW480 and Wnt 3a-activated MDA-MB-231 cells; experiment: Western blot of Wnt target proteins; format: cell-based, human; conditions: SW480 and Wnt 3a-activated MDA-MB-231, 24 h
TNBC cells = experiment: Clonogenic assay; format: cell-based
[3] = tested on: normal mammary epithelial MCF10A cells; experiment: FACS annexin V/PI apoptosis, normal cells; format: cell-based, human; conditions: 72 h treatment
[4] = Hepatic microsome stability, human; format: in vitro ADME; conditions: liver microsomes, pH 7.4
[5] = Hepatic microsome stability, mouse; format: in vitro ADME; conditions: liver microsomes, pH 7.4
Mouse PK study = format: in vivo, C57BL/6 mice; conditions: p.o., 20 mg/kg
MDA-MB-231 cells [6] = experiment: Scratch wound healing assay; format: cell-based; conditions: 10% serum, mitomycin 10 μg/mL
MDA-MB-231 cells [7] = experiment: 3D spheroid BME cell invasion assay; format: cell-based; conditions: day 6
PDX 4013 tumors = experiment: PDX 4013 TNBC xenograft, tumor growth and tolerability; conditions: 90 mg/kg orally daily in saline, 5 days
[8] = target: T2, purified full-length β-catenin (Homo sapiens, UniProt P35222); experiment: Streptavidin pull-down with purified protein; format: binding; conditions: Western blot, from 1 μM
T2 sequence (P35222 1-781): T1 sequence (P35222 1-781)

[9] = target: T3, β-catenin in SW480 cell lysates (Homo sapiens, UniProt P35222); experiment: Streptavidin pull-down from cell lysates; format: binding; conditions: 10 μM
T3 sequence (P35222 1-781): T1 sequence (P35222 1-781)

[10] = target: T4, β-catenin R1C (residues 138–781) (Homo sapiens, UniProt P35222); experiment: Streptavidin pull-down with β-catenin truncate; format: binding
T4 sequence (P35222 138-781): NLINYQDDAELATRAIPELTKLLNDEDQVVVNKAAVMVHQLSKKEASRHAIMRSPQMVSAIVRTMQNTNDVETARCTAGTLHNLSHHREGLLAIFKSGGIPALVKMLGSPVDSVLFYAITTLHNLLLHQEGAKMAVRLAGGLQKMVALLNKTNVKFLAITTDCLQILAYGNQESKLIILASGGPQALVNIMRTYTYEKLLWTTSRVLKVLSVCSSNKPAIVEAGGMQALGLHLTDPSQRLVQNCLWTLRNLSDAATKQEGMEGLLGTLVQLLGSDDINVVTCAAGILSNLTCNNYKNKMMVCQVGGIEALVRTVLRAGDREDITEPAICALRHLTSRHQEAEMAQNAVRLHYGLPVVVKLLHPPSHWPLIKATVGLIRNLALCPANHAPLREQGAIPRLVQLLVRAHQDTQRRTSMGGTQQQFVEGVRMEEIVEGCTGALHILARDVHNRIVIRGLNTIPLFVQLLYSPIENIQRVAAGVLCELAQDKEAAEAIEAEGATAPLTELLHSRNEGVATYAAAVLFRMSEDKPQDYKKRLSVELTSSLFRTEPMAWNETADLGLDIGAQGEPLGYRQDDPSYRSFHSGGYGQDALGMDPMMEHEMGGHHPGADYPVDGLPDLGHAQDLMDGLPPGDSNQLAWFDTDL

Sequence of BCL9 HD2 (Homo sapiens) (O00512 351-374): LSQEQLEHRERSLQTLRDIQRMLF

fold less potent than ZW4864 (β-catenin/BCL9 Ki) (β-catenin/BCL9 PPI): 10 fold
Compound: CC(C)(Oc1cccc(N2CCC[C@@H](C(=O)N(Cc3ccc(-c4ccn[nH]4)cc3)C3CC3)C2)c1)C(=O)N1CCNCC1.Cl [compound 17, (R)-N-(4-(1H-Pyrazol-5-yl)benzyl)-N-cyclopropyl-1-(3-((2-methyl-1-oxo-1-(piperazin-1-yl)propan-2-yl)oxy)phenyl)piperidine-3-carboxamide]

inhibitory affinity for β-catenin/BCL9 PPI, in words (β-catenin/BCL9 PPI; AlphaScreen, values only in Figure 2B): maintained low μM inhibitory affinities
Compound: CCOCCN(Cc1ccc(-c2cn[nH]c2)cc1)C(=O)[C@@H]1CCCN(c2cccc(OC(C)(C)C(=O)N3CCNCC3)c2)C1.Cl [compound 22, (R)-N-(4-(1H-Pyrazol-4-yl)benzyl)-N-(2-ethoxyethyl)-1-(3-((2-methyl-1-oxo-1-(piperazin-1-yl)propan-2-yl)oxy)phenyl)piperidine-3-carboxamide]

fold less potent than ZW4864 (β-catenin/BCL9 Ki) (β-catenin/BCL9 PPI): 89 fold
Compound: Cl.Cn1cc(-c2ccc(CN(C(=O)[C@@H]3CCCN(c4cccc(OC(C)(C)C(=O)N5CCNCC5)c4)C3)C3CC3)cc2)cn1 [compound 18, (R)-N-Cyclopropyl-1-(3-((2-methyl-1-oxo-1-(piperazin-1-yl)propan-2-yl)oxy)phenyl)-N-(4-(1-methyl-1H-pyrazol-4-yl)benzyl)piperidine-3-carboxamide]

microsomal CLint at 1 μM [4]: 24 µL/min/mg
half-life at 1 μM [5]: 7.7 min
Compound: CCN(Cc1ccc(-c2cn[nH]c2)cc1)C(=O)[C@@H]1CCCN(c2cccc(OC(C)(C)C(=O)N3CCNCC3)c2)C1.Cl [compound 21, (R)-N-(4-(1H-Pyrazol-4-yl)benzyl)-N-ethyl-1-(3-((2-methyl-1-oxo-1-(piperazin-1-yl)propan-2-yl)oxy)phenyl)piperidine-3-carboxamide]

fold more potent than 3 (β-catenin/BCL9 Ki) (β-catenin/BCL9 PPI; compared with 3): 2 fold
Compound: CC(C)c1ccc(CN(C(=O)[C@@H]2CCCN(c3cccc(OC(C)(C)C(=O)N4CCNCC4)c3)C2)C2CC2)cc1.Cl [compound 7, (R)-N-Cyclopropyl-N-(4-isopropylbenzyl)-1-(3-((2-methyl-1-oxo-1-(piperazin-1-yl)propan-2-yl)oxy)phenyl)piperidine-3-carboxamide]

The remaining lines, values behind:

Compound: CN1CCN(C(=O)C(C)(C)Oc2cccc(N3CCC[C@@H](C(=O)N(Cc4ccc(-c5cn[nH]c5)cc4)C4CC4)C3)c2)CC1 [compound 19, (R)-N-(4-(1H-Pyrazol-4-yl)benzyl)-N-cyclopropyl-1-(3-((2-methyl-1-(4-methylpiperazin-1-yl)-1-oxopropan-2-yl)oxy)phenyl)piperidine-3-carboxamide]
TOPFlash luciferase activity, in words [1]: did not show any activity

Compound: beta-catenin (from UniProt P35222)
Kd (BCL9 HD2 (Homo sapiens)): 470 nM

Compound: CC(C)(Oc1cccc(N2CCC[C@@H](C(=O)N(Cc3ccc(-c4cn[nH]c4)cc3)C3CC3)C2)c1)C(=O)N1CCNCC1.Cl [ZW4864, (R)-N-(4-(1H-Pyrazol-4-yl)benzyl)-N-cyclopropyl-1-(3-((2-methyl-1-oxo-1-(piperazin-1-yl)propan-2-yl)oxy)phenyl)piperidine-3-carboxamide]
expression of proteins Axin2 and cyclin D1 (Western blot) [2]: substantially decreased
colony formation (TNBC cells): inhibited colony formation
apoptosis (FACS annexin V/PI) [3]: sparing normal mammary epithelial MCF10A cells
microsomal CLint at 1 μM [4]: 18 µL/min/mg
half-life at 1 μM [5]: 9.6 min
CL (Mouse PK study): 51.10 mL/min/kg
MDA-MB-231 cell migration (MDA-MB-231 cells [6]): suppressed MDA-MB-231 cell migration in a dose-dependent manner
3D spheroid cell invasion (MDA-MB-231 cells [7]): suppressed MDA-MB-231 cell invasion in a dose-dependent manner
body weight and toxicity (PDX 4013 tumors): no significant decrease in weight or major toxicity issues
tumor growth compared with vehicle (PDX 4013 tumors): a variation in tumor growth

Compound: CC(C)(Oc1cccc(N2CCC[C@@H](C(=O)N(CCOCCOCCNC(=O)CCCC[C@@H]3SC[C@@H]4NC(=O)N[C@@H]43)Cc3ccc(-c4cn[nH]c4)cc3)C2)c1)C(=O)N1CCNCC1 [Biotin-ZW4864, (R)-N-(4-(1H-Pyrazol-4-yl)benzyl)-1-(3-((2-methyl-1-oxo-1-(piperazin-1-yl)propan-2-yl)oxy)phenyl)-N-(2-(2-(2-(5-((3aS,4S,6aR)-2-oxohexahydro-1H-thieno[3,4-d]imidazol-4-yl)pentanamido)ethoxy)ethoxy)ethyl)piperidine-3-carboxamide]
pull-down of purified full-length β-catenin [8]: bound with the purified full-length β-catenin in a concentration-dependent manner starting at 1 μM; also recorded: pulled down the full-length β-catenin at 1 μM
binding to β-catenin in SW480 cell lysates [9]: effectively bind with β-catenin in SW480 cell lysates
pull-down of β-catenin R1C ([10]; 10 μM): did not pull down β-catenin R1C
pull-down of β-catenin R1C ([10]; 50 μM): pulled down β-catenin R1C

— PMC8817233 (Journal of medicinal chemistry, 2021)
